The test system of this test is hypoxic mice. The experiment in a line: Survival time of mice under normal pressure in hypoxic condition (sealed wide mouth bottle with soda lime). In kind it is in vivo. The settings on record: intragastric; for Extended Survival Time: 7 days, vs control group; for Survival Time: once a day for 7 days, n = 10, x ± S. The procedure: Observation of influence of oral administration of different dosage combination of L-carnitine+trimetazidine to hypoxic mice in normal pressure trimetazidine hydrochloride: 0.15, 0.75, 1.5, 3, 6 and 9 mg/kg, equivalent to human daily dosage of 1, 5, 10, 20, 40 and 60 mg;
L-carnitine: 600 mg/kg, equivalent to human daily dosage of 4 g; 70 male mice are selected, each of a weight of 20±2 g. The mice are divided into […] randomly based on weight, 10 for each group, and are given oral administration at a dosage of 20 ml/kg, while the control group is given isovolumetric normal saline, both once a day for consecutive 7 days. In one hour after the final administration, each group of mice are placed in wide mouth bottles of a volume of 160 ml, into which 5 g of soda lime has been pre-added. One bottle contains one mouse and its cap is sealed with Vaseline. Taking death of mice as index, putting down the survival time of mice and taking a 20% or more extension of survival time as significant effect. Please refer to table 1 for the results.
Comparison of L-carnitine 600 mg/kg+trimetazidine hydrochloride 6 mg/kg and separate intragastric administration on mice in hypoxia under atmospheric pressure 40 male mice are selected, each of a weight of 20±2 g. The mice are divided into 4 groups randomly based on weight, 10 for each group, and are given intragastric administration at a dosage of 20 ml/kg, while the control group is given isovolumetric normal saline, both once a day for consecutive 7 days. In one hour after the final administration, each group of mice are placed in wide mouth bottles of a volume of 160 ml, into which 5 g of soda lime has been pre-added. One bottle contains one mouse and its cap is sealed with Vaseline. Taking death of mice as index and putting down the survival time of mice. Please refer to table 2 for the results.

Setting [1] is: trimetazidine hydrochloride 6 mg/kg alone.

Structures are written as SMILES. Counter-ions that a name gives are not always drawn.

In the case of `COc1ccc(CN2CCNCC2)c(OC)c1OC` [trimetazidine hydrochloride], under setting [1], the “Extended Survival Time” value was found to be 20.9% and the “Survival Time” value is given as 26.0 ± 5.2 min.
Regarding `C[N+](C)(C)C[C@H](O)CC(=O)[O-]` [L-carnitine], for the setting “L-carnitine 600 mg/kg alone”, the “Extended Survival Time” value stood at 33.0% and the “Survival Time” value is 28.6 ± 4.8 min.

These data come from patent US20180117036A1, “ORAL PHARMACEUTICAL COMPOSITION FOR INCREASING HYPOXIA TOLERANCE” (CHANGZHOU HI-TECH DISTRICT MULTIPLE DIMENSION INDU, priority 2013, published 2018).
